Test results: patent publication US11466020B2, “Compounds and compositions for inhibition and elimination of Zika infection and uses for same” (Cornell University, priority 2017, dated 2022)
Counter-ions that a name gives are not always drawn.

Test system: ZIKV (FSS13025 strain)
Assay: qRT-PCR of total and (-) strand vRNA in hNPCs treated 48 h post-infection (FSS13025)
Type: cell-based, Zika virus
Conditions: treatment at 48 h post-infection, 25 μM, additional 3 days
Protocol: (A and B) Inhibitory curve and IC50 of AQ were calculated based on the infection rate (A) and normalized cell viability (B) (n=6). (C and D) Immunocytochemistry analysis (C) and quantification of infection rate and total cell number (D) of hNPCs after ZIKV infection treated with 15 μM AQ or DMSO or mock infection (n=3). Cells were fixed and stained for ZIKV E and with DAPI. Scale bars, 100 μm. p values were calculated by unpaired two-tailed Student's t-test. *p<0.05, and ***p<0.001. (E) qRT-PCR analysis of total and replicating (−) strand of ZIKV (MR 766 strain) vRNA level in hNPCs from two additional donors. hNPCs from different donors were treated with 25 μM HH at 24 h post-infection. (F) The expression dynamics of ZIKV vRNA (FSS13025 strain) in hNPCs. qRT-PCR analysis to quantify the total and replicating (−) strand ZIKV vRNA levels in hNPCs at different time points post-infection. […] (G) qRT-PCR analysis of hNPCs that were treated with 25 μM HH or DMSO at 48 h post-ZIKV (FSS13025 strain) infection and maintained for additional 3 days. p values were calculated by unpaired two-tailed Student's t-test. *p<0.05, **p<0.01 and ***p<0.001, unless otherwise stated. […]
RNA Extraction and qRT-PCR. […] ZIKV vRNA levels were calculated using a standard curve generated using serial 10-fold dilutions of ZIKV vRNA.

With `CN1CCC2=C[C@H](O)[C@H]3OC(=O)c4cc5c(cc4[C@H]3[C@@H]21)OCO5` [HH, hippeastrine hydrobromide] the “total and replicating (-) strand ZIKV vRNAs in hNPCs (FSS13025)” value was “completely suppressed”.
